In test [1] the target is IDH1 R132C (Homo sapiens, UniProt O75874, R132C). The test can be described thus: IDH1 R132C enzymatic assay (NADPH depletion coupled to diaphorase/resazurin). The class given is biochemical. As to conditions: IDH1 R132C enzymatic inhibition, IC50 class. In outline:
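NADPH depletion, read via diaphorase/resazurin coupling, after adding substrate at 0.6 mM α-KG and 0.012 mM NADPH. Beforehand, 0.00032 mg/mL enzyme sat with compound 30 min at room temperature in pH 6.5 potassium phosphate buffer with MgCl2, glycerol and BSA.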

In test [2] the target is IDH1 R132H (Homo sapiens, UniProt O75874, R132H). In words: IDH1 R132H enzymatic assay (NADPH depletion coupled to diaphorase/resazurin). It is filed as biochemical. The following applies: IDH1 R132H enzymatic inhibition, IC50 class. (In general: Resazurin is reduced to fluorescent resorufin, in cell work by metabolically active cells.)

The structures appear in SMILES notation.

The term IC50 denotes the concentration that inhibits the measured activity by half. The low end stands for greater potency, the high end for weaker potency.

Sequence of IDH1 R132C (O75874 whole entry R132C): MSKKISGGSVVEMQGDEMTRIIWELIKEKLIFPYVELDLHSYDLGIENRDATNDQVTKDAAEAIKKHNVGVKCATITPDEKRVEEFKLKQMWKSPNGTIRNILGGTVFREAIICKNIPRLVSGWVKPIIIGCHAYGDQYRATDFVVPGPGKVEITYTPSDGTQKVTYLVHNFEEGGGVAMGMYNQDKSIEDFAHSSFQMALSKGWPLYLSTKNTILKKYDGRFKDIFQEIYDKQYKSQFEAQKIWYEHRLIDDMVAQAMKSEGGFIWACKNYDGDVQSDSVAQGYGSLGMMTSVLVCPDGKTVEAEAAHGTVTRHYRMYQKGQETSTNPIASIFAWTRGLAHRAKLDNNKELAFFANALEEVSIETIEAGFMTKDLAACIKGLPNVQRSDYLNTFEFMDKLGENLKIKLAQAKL
Sequence of IDH1 R132H (O75874 whole entry R132H): as the sequence (O75874 whole entry R132C) above, with C132H counted along it

With `CCc1cccc(CC)c1-n1c2c(cc(-c3nc(-c4ccccc4C)cs3)c1=O)C(=O)CC(C)(C)C2` [Compound 173], the IC50 in test [1] and in test [2] was 1000 to 5000 nM each time.

As for `COc1c(C(=O)O)cccc1-n1c2c(cc(-c3nc(-c4ccc(Cl)cc4)cs3)c1=O)C(=O)CC(C)(C)C2` [Compound 174], the IC50 is 5000 to 20000 nM in test [1] and above 20000 nM in test [2].

Regarding `COc1ccc(OC)c(-n2c3c(cc(-c4nc5cc(Cl)ccc5s4)c2=O)C(=O)CC(C)(C)C3)c1` [Compound 175], the IC50 is 300 to 1000 nM in test [1] and below 300 nM in test [2].

As for `CCc1cccc(CC)c1-n1c(C)c(C(=O)N[C@H](C)CO)cc(-c2nc(-c3ccc(Cl)cc3)cs2)c1=O` [Compound 176], the IC50 in test [1] and in test [2] was 1000 to 5000 nM in each case.

As for `CC1(C)CC(=O)c2cc(-c3nc(-c4ccc(Cl)cc4)cs3)c(=O)n(-c3cn[nH]c3)c2C1` [Compound 177], the IC50 in test [1] and in test [2] was 5000 to 20000 nM in each case.

In the case of `CC(C)c1ccccc1-n1c2c(cc(-c3nc(-c4ccc(Cl)cc4)cs3)c1=O)C(=O)CC(C)(C)C2` [Compound 178], the IC50 in test [1] and in test [2] was 300 to 1000 nM throughout.

Turning to `CCc1cccc(CC)c1-n1c2c(cc(-c3nc(-c4ccccc4OC)cs3)c1=O)C(=O)CC(C)(C)C2` [Compound 179], the IC50 in test [1] and in test [2] was 1000 to 5000 nM throughout.

In the case of `CCc1cccc(CC)c1-n1c(C)c(C(=O)Nc2ccccc2)cc(-c2nc(-c3ccc(Cl)cc3)cs2)c1=O` [Compound 180], the IC50 in test [1] and in test [2] was above 20000 nM throughout.

`CCc1cccc(CC)c1-n1c(CC(C)C)c(C(=O)N2CCNCC2)cc(-c2nc(-c3ccc(F)cc3)c(C)s2)c1=O` [Compound 181]: the IC50 in test [1] and in test [2] was below 300 nM in each case.

As for `Cc1ccc([N+](=O)[O-])cc1-n1c2c(cc(-c3nc(-c4ccc(Cl)cc4)cs3)c1=O)C(=O)CC(C)(C)C2` [Compound 182], the IC50 in test [1] and in test [2] was 1000 to 5000 nM in each case.

For the compound `CCc1cccc(CC)c1-n1c2c(cc(-c3nc(-c4ccc(OC)cc4)cs3)c1=O)C(=O)CC(C)(C)C2` [Compound 183], the IC50 in test [1] and in test [2] was 300 to 1000 nM in each case.

Regarding `CCc1cccc(CC)c1-n1c(CC(C)C)c(C(=O)N2CCNCC2)cc(-c2ccn(-c3ccc(Cl)cc3)n2)c1=O` [Compound 184], the IC50 in test [1] and in test [2] was below 300 nM throughout.

With `COc1ccc(OC)c(-n2c3c(cc(-c4ccc(-c5ccccc5)cc4)c2=O)C(=O)CC(C)(C)C3)c1` [Compound 185], the IC50 in test [1] and in test [2] was above 20000 nM throughout.

`CCc1cccc(CC)c1-n1c2c(cc(-c3nc(-c4ccc(C(F)(F)F)cc4)cs3)c1=O)C(=O)CC(C)(C)C2` [Compound 186]: the IC50 in test [1] was below 300 nM; in test [2] it was 300 to 1000 nM.

Consider `CCc1cccc(CC)c1-n1c(CC(C)C)c(C(=O)N[C@@H]2CCC[C@@H]2O)cc(-c2nc(-c3ccc(Cl)cc3)cs2)c1=O` [Compound 187], for which the IC50 in test [1] and in test [2] was 300 to 1000 nM throughout.

Take `CCc1cccc(CC)c1-n1c(CC(C)C)c(C(=O)N2CCNCC2)cc(-c2nc(-c3ccc(C(=O)NC4CCCC4)cc3)c(C)s2)c1=O` [Compound 188]: the IC50 in test [1] and in test [2] was 5000 to 20000 nM throughout.

On to `CCc1cccc(CC)c1-n1c(CC(C)C)c(C(=O)N2CCN[C@H](C(=O)O)C2)cc(-c2nc(-c3ccc(Cl)cc3)cs2)c1=O` [Compound 189], for which the IC50 in test [1] was below 300 nM; in test [2] it was 300 to 1000 nM.

As to `COc1ccc(OC)c(-n2c(=O)c(-c3nc(-c4ccc(Cl)cc4)cs3)cc3c(O)cncc32)c1` [Compound 190], the IC50 in test [1] and in test [2] was above 20000 nM in each case.

For `COc1ccc(OC)c(-n2c3c(cc(-n4ccc(-c5ccccc5)n4)c2=O)C(=O)CC(C)(C)C3)c1` [Compound 191], the IC50 in test [1] and in test [2] was 1000 to 5000 nM throughout.

As to `CCc1cccc(CC)c1-n1c(C)c(C(=O)NCc2ccccc2)cc(-c2nc(-c3ccc(Cl)cc3)cs2)c1=O` [Compound 192], the IC50 in test [1] is 1000 to 5000 nM; in test [2], above 20000 nM.

With `CCc1cccc(CC)c1-n1c(CC(C)C)c(C(=O)N2CC(=O)N[C@H](C(=O)O)C2)cc(-c2nc(-c3ccc(Cl)cc3)cs2)c1=O` [Compound 193], the IC50 in test [1] and in test [2] was 300 to 1000 nM throughout.

Turning to `CCc1cccc(CC)c1-n1c2c(cc(-c3nc(-c4ccc(Cl)cc4)cs3)c1=O)C(=O)OC2` [Compound 194], the IC50 in test [1] was 5000 to 20000 nM; in test [2] it was above 20000 nM.

Turning to `CC1(C)CC(=O)c2cc(-c3nc(-c4ccc(Cl)cc4)cs3)c(=O)n(-c3ccccc3F)c2C1` [Compound 195], the IC50 in test [1] and in test [2] was 300 to 1000 nM throughout.

For the compound `CCc1cccc(CC)c1-n1c(CC(C)C)c(C(=O)NC(CC)CO)cc(-c2nc(-c3ccc(Cl)cc3)cs2)c1=O` (stereo not drawn) [Compound 196], the values for the IC50 in test [1] and in test [2] were below 300 nM and 1000 to 5000 nM, respectively.

As for `CCc1cccc(CC)c1-n1c2c(cc(-c3nc(C4=CCN(C(=O)OC(C)(C)C)CC4)c(C)s3)c1=O)C(=O)CC(C)(C)C2` [Compound 197], the IC50 was in the range of 5000 to 20000 nM in test [1] and 1000 to 5000 nM in test [2].

For `CCc1cccc(CC)c1-n1c(C)c(C(=O)N2CCNC(C(=O)O)C2)cc(-c2nc(-c3ccc(Cl)cc3)cs2)c1=O` (stereo not drawn) [Compound 198], the IC50 in test [1] and in test [2] was 300 to 1000 nM throughout.

In the case of `CC1(C)CC(=O)c2cc(-c3nc(-c4ccc(Cl)cc4)cs3)c(=O)n(-c3ccccc3O)c2C1` [Compound 199], the IC50 in test [1] and in test [2] was 5000 to 20000 nM each time.

`CCc1cccc(CC)c1-n1c2c(cc(-c3nc(-c4ccccn4)cs3)c1=O)C(=O)CC(C)(C)C2` [Compound 200]: the IC50 was in the range of 1000 to 5000 nM in test [1] and 5000 to 20000 nM in test [2].

With `CCc1cccc(CC)c1-n1c(CC(C)C)c(C(=O)N2CCNC(CO)C2)cc(-c2nc(-c3ccc(Cl)cc3)cs2)c1=O` (stereo not drawn) [Compound 201], the IC50 in test [1] and in test [2] was below 300 nM throughout.

Turning to `CCc1cccc(CC)c1-n1c(CC(C)C)c(C(=O)N2CCNC(c3ccccc3)C2)cc(-c2nc(-c3ccc(Cl)cc3)cs2)c1=O` (stereo not drawn) [Compound 202], the IC50 in test [1] is below 300 nM; in test [2], 300 to 1000 nM.

On to `COc1ccccc1Cn1c2c(cc(-c3nc(-c4ccc(Cl)cc4)cs3)c1=O)C(=O)CC(C)(C)C2` [Compound 203], for which the IC50 in test [1] and in test [2] was 1000 to 5000 nM throughout.

Take `COc1ccc(-c2csc(-c3cc4c(n(-c5ccccc5C(F)(F)F)c3=O)CC(C)(C)CC4=O)n2)cc1` [Compound 204]: the IC50 in test [1] lay in the range of 300 to 1000 nM; in test [2], 1000 to 5000 nM.

For `CCc1cccc(CC)c1-n1c2c(cc(-c3nc(-c4cccc(Cl)c4)cs3)c1=O)C(=O)CC(C)(C)C2` [Compound 205], the figures for the IC50 in test [1] and in test [2] were 1000 to 5000 nM and above 20000 nM, respectively.

With `CCc1cccc(CC)c1-n1c(CC(C)C)c(C(=O)N2CC(C(=O)O)NCC2C)cc(-c2nc(-c3ccc(Cl)cc3)cs2)c1=O` (stereo not drawn) [Compound 206], the IC50 in test [1] was below 300 nM; in test [2], 300 to 1000 nM.

Take `CCc1cccc(CC)c1-n1c(C)c(C(=O)N2CCC(NC)C2)cc(-c2nc(-c3ccc(Cl)cc3)cs2)c1=O` (stereo not drawn) [Compound 207]: the IC50 in test [1] and in test [2] was 1000 to 5000 nM throughout.

`CCc1cccc(CC)c1-n1c2c(cc(-c3nc(C4=CCN(C)CC4)c(C)s3)c1=O)C(=O)CC(C)(C)C2` [Compound 208]: the figures for the IC50 in test [1] and in test [2] were 5000 to 20000 nM and above 20000 nM, respectively.

With `CCc1cccc(CC)c1-n1c2c(cc(-c3nc(-c4cccc(F)c4)cs3)c1=O)C(=O)CC(C)(C)C2` [Compound 209], the IC50 in test [1] and in test [2] was 1000 to 5000 nM throughout.

For `CCc1cccc(CC)c1-n1c(CC(C)C)c(C(=O)N2CCNCC2)cc(-c2nc(-c3ccc(C(F)(F)F)cc3)c(C)s2)c1=O` [Compound 210], the IC50 is below 300 nM in test [1] and 300 to 1000 nM in test [2].

Consider `CCc1cccc(CC)c1-n1c(CC(C)C)c(C(=O)N2CCNCC2)cc(-c2nc(-c3ccc(N4CCOCC4)cc3)c(C)s2)c1=O` [Compound 211], for which the 50% inhibitory concentration (IC50) in test [1] and in test [2] was 5000 to 20000 nM each time.

As for `CCOc1ccccc1-n1c2c(cc(-c3nc(-c4ccc(Cl)cc4)cs3)c1=O)C(=O)CC(C)(C)C2` [Compound 212], the IC50 in test [1] and in test [2] was 300 to 1000 nM in each case.

Consider `CCc1cccc(CC)c1-n1c2c(cc(-c3nc(-c4ccccc4Cl)cs3)c1=O)C(=O)CC(C)(C)C2` [Compound 213], for which the IC50 in test [1] and in test [2] was 1000 to 5000 nM in each case.

Take `CCc1cccc(CC)c1-n1c(C)c(C(=O)N[C@@H]2CCCC[C@@H]2N)cc(-c2nc(-c3ccc(Cl)cc3)cs2)c1=O` [Compound 214]: the IC50 lay in the range of 300 to 1000 nM in test [1] and 5000 to 20000 nM in test [2].

For `Cc1cccc(C)c1-n1c2c(cc(-c3nc(-c4ccc(Cl)cc4)cs3)c1=O)C(=O)CC(C)(C)C2` [Compound 215], the IC50 in test [1] and in test [2] was 1000 to 5000 nM throughout.

With `CC1(C)CC(=O)c2cc(-c3nc(-c4ccc(Cl)cc4)cs3)c(=O)n(C3CCCCC3)c2C1` [Compound 216], the values for the IC50 in test [1] and in test [2] were 5000 to 20000 nM and above 20000 nM, respectively.

For the compound `CCc1cccc(CC)c1-n1c(CC(C)C)c(C(=O)N[C@@H]2CCC[C@H]2O)cc(-c2nc(-c3ccc(Cl)cc3)cs2)c1=O` [Compound 217], the IC50 was in the range of 300 to 1000 nM in test [1] and 1000 to 5000 nM in test [2].

Regarding `CCc1cccc(CC)c1-n1c(C(C)C)c(C(=O)NCCO)cc(-c2nc(-c3ccc(Cl)cc3)cs2)c1=O` [Compound 218], the figures for the IC50 in test [1] and in test [2] were 300 to 1000 nM and below 300 nM, respectively.

On to `CCc1cccc(CC)c1-n1c(C)c(C(=O)NC2CCC(O)CC2)cc(-c2nc(-c3ccc(Cl)cc3)cs2)c1=O` (stereo not drawn) [Compound 219], for which the IC50 in test [1] and in test [2] was 1000 to 5000 nM in each case.

As for `CCc1cccc(CC)c1-n1c(C)c(C(=O)N2CCN[C@@H](CO)C2)cc(-c2nc(-c3ccc(Cl)cc3)cs2)c1=O` [Compound 220], the IC50 was 300 to 1000 nM in test [1] and below 300 nM in test [2].
